Laboratory results reported in ChEMBL document CHEMBL4311942, “Design of Trp-Rich Dodecapeptides with Broad-Spectrum Antimicrobial Potency and Membrane-Disruptive Mechanism” (J Med Chem, 2019).
≈ marks a conversion by molar mass, not a printed value. Calls of active or inactive are those of the source. The calls are words filed in the database; no cut-off is given here. Where a SMILES comes first, the peptide text is derived from it.

Legend:
Staphylococcus aureus [1] = assay: Antibacterial activity against Staphylococcus aureus ATCC 25923 incubated for 18 to 24 hrs by broth microdilution method; format: functional
Staphylococcus aureus [2] = assay: Antibacterial activity against Staphylococcus aureus ATCC 29213 incubated for 18 to 24 hrs by broth microdilution method; format: functional
Salmonella typhimurium = assay: Antibacterial activity against Salmonella enterica serovar typhimurium C77-31 incubated for 18 to 24 hrs by broth microdilution method; format: functional, Salmonella enterica subsp. enterica serovar Typhimurium
[3] = tested on: Staphylococcus epidermidis; assay: Antibacterial activity against Staphylococcus epidermidis ATCC 12228 incubated for 18 to 24 hrs by broth microdilution method; format: functional
Escherichia coli [4] = assay: Antibacterial activity against Escherichia coli 20411 clinical isolate incubated for 18 to 24 hrs by broth microdilution method; format: functional
[5] = Cytotoxicity against mouse RAW264.7 cells assessed as cell survival at <= 32 uM after 24 hrs by MTT assay relative to control; format: cell-based; conditions: RAW264.7 cells, up to 32 µM, read-out: Activity
[6] = Cytotoxicity against mouse RAW264.7 cells assessed as cell survival at […] after 24 hrs by MTT assay relative to control; format: cell-based; conditions: read-out: Activity
Staphylococcus aureus [7] = assay: Antibacterial activity against Staphylococcus aureus ATCC 29213 incubated for 2 hrs in presence of sodium phosphate buffer at pH 2 by broth microdilution method; format: functional; conditions: ATCC 29213, 2 h
Escherichia coli [8] = assay: Bactericidal activity against Escherichia coli ATCC 25922 at 4 times MIC after 60 mins by time kill assay relative to control; format: functional
Staphylococcus aureus [9] = assay: Bactericidal activity against Staphylococcus aureus ATCC 29213 at 2 times MIC after 60 mins by time kill assay; format: functional, organism-based
Escherichia coli [10] = assay: Antibacterial activity against Escherichia coli ATCC 25922 using preheated compound at 100 degreeC for 1 hr by broth microdilution method; format: functional; conditions: ATCC 25922, 1 h
Escherichia coli [11] = assay: Antibacterial activity against Escherichia coli ATCC 25922 in presence of NaCl by broth microdilution method; format: functional
Escherichia coli [12] = assay: Antibacterial activity against Escherichia coli ATCC 25922 in presence of NH4Cl by broth microdilution method; format: functional
Escherichia coli [13] = assay: Antibacterial activity against Escherichia coli ATCC 25922 in presence of ZnCl2 by broth microdilution method; format: functional
Escherichia coli [14] = assay: Antibacterial activity against Escherichia coli ATCC 25922 in presence of CaCl2 by broth microdilution method; format: functional
Escherichia coli [15] = assay: Antibacterial activity against Escherichia coli ATCC 25922 in presence of 12.5% serum by broth microdilution method; format: functional
Escherichia coli [16] = assay: Antibacterial activity against Escherichia coli ATCC 25922 in presence of 25% serum by broth microdilution method; format: functional
Escherichia coli [17] = assay: Antibacterial activity against Escherichia coli ATCC 25922 incubated for 2 hrs in presence of sodium phosphate buffer at pH 4 by broth microdilution method; format: functional; conditions: ATCC 25922, 2 h
Escherichia coli [18] = assay: Antibacterial activity against Escherichia coli ATCC 25922 incubated for 2 hrs in presence of sodium phosphate buffer at pH 12 by broth microdilution method; format: functional; conditions: ATCC 25922, 2 h
Escherichia coli [19] = assay: Antibacterial activity against Escherichia coli ATCC 25922 in presence of H202 by broth microdilution method; format: functional
Staphylococcus aureus [20] = assay: Antibacterial activity against Staphylococcus aureus ATCC 29213 in presence of KCl by broth microdilution method; format: functional
Staphylococcus aureus [21] = assay: Antibacterial activity against Staphylococcus aureus ATCC 29213 in presence of NH4Cl by broth microdilution method; format: functional
Staphylococcus aureus [22] = assay: Antibacterial activity against Staphylococcus aureus ATCC 29213 in presence of MgCl2 by broth microdilution method; format: functional
Staphylococcus aureus [23] = assay: Antibacterial activity against Staphylococcus aureus ATCC 29213 in presence of ZnCl2 by broth microdilution method; format: functional
Staphylococcus aureus [24] = assay: Antibacterial activity against Staphylococcus aureus ATCC 29213 in presence of FeCl3 by broth microdilution method; format: functional
Staphylococcus aureus [25] = assay: Antibacterial activity against Staphylococcus aureus ATCC 29213 in presence of 12.5% serum by broth microdilution method; format: functional
Staphylococcus aureus [26] = assay: Antibacterial activity against Staphylococcus aureus ATCC 29213 in presence of 50% serum by broth microdilution method; format: functional
Staphylococcus aureus [27] = assay: Antibacterial activity against Staphylococcus aureus ATCC 29213 incubated for 2 hrs in presence of sodium phosphate buffer at pH 4 by broth microdilution method; format: functional; conditions: ATCC 29213, 2 h
Staphylococcus aureus [28] = assay: Antibacterial activity against Staphylococcus aureus ATCC 29213 in presence of NaBH4 by broth microdilution method; format: functional
Escherichia coli [29] = assay: Antibacterial activity against ciprofloxacin-resistant Escherichia coli ATCC 25922 incubated for 18 to 24 hrs; format: functional
Lipopolysaccharide (LPS) = assay: Displacement of BODIPY-TR-cadaverine from Escherichia coli O111:B4 LPS by spectrofluorophotometric method
Escherichia coli [30] = assay: Antibacterial activity against Escherichia coli ATCC 25922 incubated for 18 to 24 hrs using FITC-labelled peptide by broth microdilution method; format: functional, organism-based
Staphylococcus aureus [31] = assay: Antibacterial activity against Staphylococcus aureus ATCC 29213 incubated for 18 to 24 hrs using FITC-labelled peptide by broth microdilution method; format: functional, organism-based
Escherichia coli [32] = assay: Induction of cell membrane disruption in Escherichia coli ATCC 25922 after 30 mins by propidium iodide-staining based flow cytometric analysis; format: organism-based
Staphylococcus aureus [33] = assay: Induction of cell membrane disruption in Staphylococcus aureus ATCC 29213 assessed as propidium iodide-positive cells at 2 times MIC after 30 mins by flow cytometric analysis (reference value: 0.3%)
Escherichia coli [34] = assay: Induction of cell membrane disruption in Escherichia coli ATCC 25922 assessed as appearance of partial membrane corrugation at 1 times MIC after 60 mins by field emission scanning electron microscopy; format: organism-based
Escherichia coli [35] = assay: Induction of cell membrane disruption in Escherichia coli ATCC 25922 assessed as leakage of cellular contents at 1 to 2 times MIC after 60 mins by transmission electron microscopy; format: organism-based
Escherichia coli [36] = assay: Induction of cell membrane disruption in Escherichia coli ATCC 25922 assessed as appearance of cytoplasmic clear zones at 1 times MIC after 60 mins by transmission electron microscopy; format: organism-based
Escherichia coli [37] = assay: Induction of cell membrane disruption in Escherichia coli ATCC 25922 assessed as seperation of cytoplasmic membrane from outer membrane at 2 times MIC after 60 mins by transmission electron microscopy; format: organism-based
Pseudomonas aeruginosa = assay: Antibacterial activity against Pseudomonas aeruginosa PAO1 at sub-MIC treated over 35 serial passages by resistant development assay; format: functional, organism-based

CC(C)C[C@H](NC(=O)[C@H](CCCNC(=N)N)NC(=O)[C@H](Cc1c[nH]c2ccccc12)NC(=O)[C@H](CCCNC(=N)N)NC(=O)[C@@H](NC(=O)[C@H](CCCCN)NC(=O)[C@H](Cc1c[nH]c2ccccc12)NC(=O)[C@H](CCCNC(=N)N)NC(=O)[C@H](CC(C)C)NC(=O)[C@H](CCCNC(=N)N)NC(=O)[C@@H](N)Cc1c[nH]c2ccccc12)[C@@H](C)O)C(=O)N[C@@H](CCCCN)C(N)=O (H-WRLRWKTRWRLK-NH2)
MIC (Staphylococcus aureus [1]): 2 µM (≈ 3.57 µg/mL)
MIC (Staphylococcus aureus [2]): 4 µM (≈ 7.14 µg/mL)
MIC (Salmonella typhimurium): 2 µM (≈ 3.57 µg/mL)
MIC [3]: 4 µM (≈ 7.14 µg/mL)
MIC (Escherichia coli [4]): 2 µM (≈ 3.57 µg/mL)
viability at 24 h [5]: ≥ 70%
viability at 24 h, […] [6]: ≤ 90%
MIC (Staphylococcus aureus [7]): 4 µM
Activity (Escherichia coli [8]): 100%
Activity (Staphylococcus aureus [9]): Active
MIC (Escherichia coli [10]): 2 µM (≈ 3.57 µg/mL)
MIC (Escherichia coli [11]): 4 µM
MIC (Escherichia coli [12]): 1 µM
MIC (Escherichia coli [13]): 4 µM
MIC (Escherichia coli [14]): 2 µM
MIC (Escherichia coli [15]): 4 µM
MIC (Escherichia coli [16]): 4 µM
MIC (Escherichia coli [17]): 2 µM
MIC (Escherichia coli [18]): 2 µM
MIC (Escherichia coli [19]): 2 µM
MIC (Staphylococcus aureus [20]): 2 µM
MIC (Staphylococcus aureus [21]): 4 µM
MIC (Staphylococcus aureus [22]): 2 µM
MIC (Staphylococcus aureus [23]): 4 µM
MIC (Staphylococcus aureus [24]): 4 µM
MIC (Staphylococcus aureus [25]): 4 µM
MIC (Staphylococcus aureus [26]): 8 µM
MIC (Staphylococcus aureus [27]): 4 µM
MIC (Staphylococcus aureus [28]): 4 µM
MIC (Escherichia coli [29]): 4 µM (≈ 7.14 µg/mL)
Activity (Lipopolysaccharide (LPS)): Dose-dependent effect
Activity (Escherichia coli [30]): Active
Activity (Staphylococcus aureus [31]): Active
Activity (Escherichia coli [32]): Dose-dependent effect
Activity (Staphylococcus aureus [33]): 97.7%
Activity (Escherichia coli [34]): Active
Activity (Escherichia coli [35]): Active
Activity (Escherichia coli [36]): Active
Activity (Escherichia coli [37]): Active
Activity (Pseudomonas aeruginosa): Active
